The inhibition is the drop in the measured response relative to a control, in per cent.

Molecules are shown by their SMILES.

Data on four molecules can be found in US8524755B2 (priority 2009, dated 2013).

The test system of data set [1] is Ca^2+ channel (L, dihydropyridine site). In words: Binding Ca2+ channel (L, dihydropyridine site) (aa). Also noted: species or system rat. How it is done: (§1) Radioligand binding assay methods utilized to measure the activity of compounds of the invention will be familiar to those skilled in the art. In each assay case, the assay components such as, for example, the cell-type, ligand, reference compound and the like, will be familiar to practitioners of such an assay.
(§2) Analysis and Expression of Results: Compounds of the invention were tested in the biochemical assays and percent inhibition of specific binding was determined. The specific ligand binding to the receptors is defined as the difference between the total binding and the nonspecific binding determined in the presence of an excess of unlabelled ligand. The results are expressed as a percent inhibition of control specific binding (100−((measured specific binding/control specific binding)×100)) obtained in the presence of test compounds.

Data set [2] can be described thus: [14C]RD162′ radio-HPLC metabolite profile in Pooled Rat Plasma. As to conditions: [14C]RD162′ 100 mg/kg/day oral, day 7, 4 h. Format: in vivo, Sprague Dawley rats. How it is done:
The rats were dosed once a day for seven consecutive days; four hours after dosing on the seventh day, plasma was collected from all three rats. The plasma samples were stored at approximately −70° C. or colder.
Positive ion electrospray LC/MS and LC/MS/MS were used to analyze the metabolites.
To prepare the Pooled Rat Plasma for HPLC analysis, approximately 1 g of the plasma sample was combined with acetonitrile (ACN, sample:ACN, 1:3, v:v), vortex mixed, sonicated in cold water, centrifuged, and the supernatants were removed. The extraction was repeated twice and the respective supernatants were combined. […] The combined supernatants were evaporated to dryness and reconstituted in 1 mL of 0.1% formic acid in reverse osmosis (RO) water:ACN: methanol (MeOH, 50:45:5, v:v:v). […] The reconstituted sample was analyzed by HPLC to determine the metabolite profile with fractions collected at 10-second intervals and analyzed by solid scintillation counting.
The prepared samples were analyzed using the following LC/MS/MS conditions: HPLC: Hewlett Packard 1100 series; Mobile Phase: 0.1% formic acid in reverse osmosis water (A) and acetonitrile (B); Column: Agilent Eclipse XDB-C18, 4.6×150 mm, 5 μm; Guard column: Phenomenex Security Guard Cartridge C18, 3×4 mm; Column temperature: 20° C.; Gradient: 20-80% B in 40 min; Flow Rate: 1.5 mL/min.

Another data set concerns the target T1, PNMT (Bos taurus, UniProt P10938).
T1 construct: bovine adrenal medulla; from tissue; host or cells: bovine adrenal medulla
T1 sequence (P10938 1-283): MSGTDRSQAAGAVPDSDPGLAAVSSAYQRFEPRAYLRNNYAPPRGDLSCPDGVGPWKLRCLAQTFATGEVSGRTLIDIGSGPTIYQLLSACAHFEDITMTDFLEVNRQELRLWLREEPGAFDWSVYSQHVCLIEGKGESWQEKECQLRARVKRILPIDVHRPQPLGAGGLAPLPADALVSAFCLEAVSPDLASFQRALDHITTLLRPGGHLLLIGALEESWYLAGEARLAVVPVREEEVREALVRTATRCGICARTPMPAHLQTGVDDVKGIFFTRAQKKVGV
As to the kind of experiment: Enzyme assay PNMT. Format: biochemical, bovine. The settings on record: read-out: % Inhibition of Control Values @ 10 μM. The text has this:
The enzyme assays provided below will be familiar to those skilled in the art.
Analysis and Expression of Results: The results are expressed as a percent of control specific activity ((measured specific activity/control specific activity)×100) obtained in the presence of the test compounds.

In another data set the target is T2, Adenosine A3 (h) (Homo sapiens, UniProt P0DMS8).
T2 construct: expressed in transfected cells; host or cells: HEK-293 cells
T2 sequence (P0DMS8 1-318): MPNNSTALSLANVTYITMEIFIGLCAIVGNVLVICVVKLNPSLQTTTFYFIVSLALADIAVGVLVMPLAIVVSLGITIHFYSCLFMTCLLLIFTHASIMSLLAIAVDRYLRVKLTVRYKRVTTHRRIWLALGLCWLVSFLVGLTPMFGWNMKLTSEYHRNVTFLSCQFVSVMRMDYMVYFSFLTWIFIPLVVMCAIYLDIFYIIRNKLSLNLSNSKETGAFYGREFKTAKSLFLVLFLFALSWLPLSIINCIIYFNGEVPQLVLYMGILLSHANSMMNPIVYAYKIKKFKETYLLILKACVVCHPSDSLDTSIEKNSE
As to the kind of experiment: Binding A3 (h) (ag). The settings on record: read-out: % Inhibition of Control Specific Binding @ 10 μM. How it is done: as §1, §2

The next data set has as its target T3, Histamine H2 (h) (Homo sapiens, UniProt P25021).
T3 construct: expressed in transfected cells; host or cells: CHO cells
In words: Binding H2 (h) (aa). As to conditions: read-out: % Inhibition of Control Specific Binding @ 10 μM. How it is done: as §1, §2

Another data set concerns the target T4, β1 (h) (Homo sapiens, UniProt P08588).
T4 construct: expressed in transfected cells; host or cells: HEK-293 cells
As to the kind of experiment: Binding β1 (h) (ag). The settings on record: read-out: % Inhibition of Control Specific Binding @ 10 μM. How it is done: as §1, §2

Data set [3] deals with T5, N neuronal α-BGTX-insensitive (α4β2) (Rattus norvegicus, UniProt P09483+P12390).
T5 construct: rat cerebral cortex; from tissue; host or cells: rat cerebral cortex
As to the kind of experiment: Binding N neuronal α-BGTX-insensitive (α4β2) (ag). The settings on record: read-out: % Inhibition of Control Specific Binding @ 10 μM. How it is done: as §1, §2

For the next data set, the target named is T6, Adenosine A1 (h) (Homo sapiens, UniProt P30542).
T6 construct: expressed in transfected cells; host or cells: CHO cells
T6 sequence (P30542 1-326): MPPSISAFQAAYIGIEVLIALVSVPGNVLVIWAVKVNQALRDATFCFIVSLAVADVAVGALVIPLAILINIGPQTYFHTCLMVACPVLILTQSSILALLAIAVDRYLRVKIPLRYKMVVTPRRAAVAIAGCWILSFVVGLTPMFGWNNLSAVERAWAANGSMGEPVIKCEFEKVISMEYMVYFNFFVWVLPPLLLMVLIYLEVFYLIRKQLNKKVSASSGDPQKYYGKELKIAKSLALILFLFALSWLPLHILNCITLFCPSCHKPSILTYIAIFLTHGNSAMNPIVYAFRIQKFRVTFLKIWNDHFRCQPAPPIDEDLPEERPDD
As to the kind of experiment: Binding A1 (h) (aa). The settings on record: read-out: % Inhibition of Control Specific Binding @ 10 μM. How it is done: as §1, §2

The test system of another data set is Progesterone PR (h). In words: Binding PR (h) (ag). Also noted: species or system human. How it is done: as §1, §2

T4 sequence (P08588 whole entry): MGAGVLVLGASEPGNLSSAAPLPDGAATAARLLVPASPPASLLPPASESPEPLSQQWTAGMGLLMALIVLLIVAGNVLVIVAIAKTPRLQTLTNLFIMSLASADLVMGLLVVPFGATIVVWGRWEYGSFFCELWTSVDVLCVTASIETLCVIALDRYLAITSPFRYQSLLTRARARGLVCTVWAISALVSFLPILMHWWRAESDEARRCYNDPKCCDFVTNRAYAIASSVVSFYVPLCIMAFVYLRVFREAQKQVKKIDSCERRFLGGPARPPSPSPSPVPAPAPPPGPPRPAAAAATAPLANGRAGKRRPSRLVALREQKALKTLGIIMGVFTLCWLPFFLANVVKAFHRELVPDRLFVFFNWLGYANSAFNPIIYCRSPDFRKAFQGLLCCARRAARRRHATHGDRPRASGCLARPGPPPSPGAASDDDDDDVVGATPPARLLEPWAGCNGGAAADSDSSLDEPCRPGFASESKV
T5 sequence (P09483 31-630): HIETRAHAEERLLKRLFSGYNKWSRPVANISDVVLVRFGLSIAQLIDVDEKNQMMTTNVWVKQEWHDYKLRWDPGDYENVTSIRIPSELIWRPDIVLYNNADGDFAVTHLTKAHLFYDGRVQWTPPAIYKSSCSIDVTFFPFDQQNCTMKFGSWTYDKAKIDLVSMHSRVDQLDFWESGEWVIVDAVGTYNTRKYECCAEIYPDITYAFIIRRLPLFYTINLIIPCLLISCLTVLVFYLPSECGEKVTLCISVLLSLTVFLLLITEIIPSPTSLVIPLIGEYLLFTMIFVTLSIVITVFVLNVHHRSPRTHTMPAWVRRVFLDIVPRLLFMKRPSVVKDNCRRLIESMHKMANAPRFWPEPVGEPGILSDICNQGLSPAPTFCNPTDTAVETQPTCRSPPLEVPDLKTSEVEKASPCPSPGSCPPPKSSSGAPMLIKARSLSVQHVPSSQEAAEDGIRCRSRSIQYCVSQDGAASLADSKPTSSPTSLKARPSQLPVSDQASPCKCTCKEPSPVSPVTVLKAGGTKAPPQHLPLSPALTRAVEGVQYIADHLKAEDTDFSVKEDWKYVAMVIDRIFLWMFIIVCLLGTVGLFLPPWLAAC
T5 sequence (P12390 25-500): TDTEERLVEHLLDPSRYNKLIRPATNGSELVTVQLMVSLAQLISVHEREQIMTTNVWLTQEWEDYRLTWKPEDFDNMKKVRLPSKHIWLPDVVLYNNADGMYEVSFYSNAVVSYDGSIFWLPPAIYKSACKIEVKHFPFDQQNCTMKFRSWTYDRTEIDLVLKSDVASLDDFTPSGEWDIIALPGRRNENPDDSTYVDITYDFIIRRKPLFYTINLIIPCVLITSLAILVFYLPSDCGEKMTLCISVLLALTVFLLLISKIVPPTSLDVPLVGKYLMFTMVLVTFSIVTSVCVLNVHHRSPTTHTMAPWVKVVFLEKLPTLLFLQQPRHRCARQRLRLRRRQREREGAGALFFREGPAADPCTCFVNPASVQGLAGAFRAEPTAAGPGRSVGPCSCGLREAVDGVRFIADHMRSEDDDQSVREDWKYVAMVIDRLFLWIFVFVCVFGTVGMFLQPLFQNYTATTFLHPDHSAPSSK
T3 sequence (P25021 whole entry): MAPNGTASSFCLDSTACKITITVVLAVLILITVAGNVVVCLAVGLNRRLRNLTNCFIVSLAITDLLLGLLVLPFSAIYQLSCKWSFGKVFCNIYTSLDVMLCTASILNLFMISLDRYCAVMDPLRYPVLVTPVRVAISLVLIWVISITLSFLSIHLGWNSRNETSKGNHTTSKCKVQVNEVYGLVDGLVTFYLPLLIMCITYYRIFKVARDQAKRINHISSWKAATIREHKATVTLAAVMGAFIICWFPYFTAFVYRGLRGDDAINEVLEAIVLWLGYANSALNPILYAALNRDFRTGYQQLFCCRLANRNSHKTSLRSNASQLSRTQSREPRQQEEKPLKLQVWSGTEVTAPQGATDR

Consider `CC1(C)C(=O)N(c2ccc(C#N)c(C(F)(F)F)c2)C(=S)N1c1ccc(C(=O)O)c(F)c1` [(MI), 4-(3-(4-cyano-3-(trifluoromethyl)phenyl)-5,5-dimethyl-4-oxo-2-thioxoimidazolidin-1-yl)-2-fluorobenzoic acid], for which the figures for the “% Inhibition of Control Specific Binding @ 10 μM” value (“% Inhibition” for short) (in [1]; in the data set on Progesterone PR (h)) were 16% and 23%, respectively. In data set [2], the “% Injected Radioactivity (%)” value was 11.02%. Besides, the “% Recovered Radioactivity (%)” value in data set [2] is recorded as 17.31%. In addition, the “Peak Area (mV)” value in data set [2] is 589 mV. Also, in data set [2], the “Peak Height (mV)” value is on record as 86 mV. In addition, the inhibition at 10 µM on PNMT is -6%; on Adenosine A3 (h), 69%; on Histamine H2 (h), -41%; at β1 (h), -2%; in data set [3], 0%; at Adenosine A1 (h), 10%.
`CC1(C)C(=O)N(c2ccc(C#N)c(C(F)(F)F)c2)C(=S)N1c1ccc(C(N)=O)c(F)c1` [(MII), 4-(3-(4-Cyano-3-(trifluoromethyl)phenyl)-5,5-dimethyl-4-oxo-2-thioxoimidazolidin-1-yl)-2-fluorobenzamide]: the “% Inhibition” value came to 18% in data set [1] and 74% in the data set on Progesterone PR (h). Also, the “% Injected Radioactivity (%)” value in data set [2] was 5.38%. For the same molecule, the “% Recovered Radioactivity (%)” value in data set [2] was 8.45%. Moreover, in [2], the “Peak Area (mV)” value is reported as 288 mV. The “Peak Height (mV)” value in data set [2] came to 43 mV. Besides, the inhibition at 10 µM at PNMT is -4%; on Adenosine A3 (h), 17%; at Histamine H2 (h), -27%; at β1 (h), -7%; in [3], -3%; at Adenosine A1 (h), 9%.
`CC1(C)C(=O)N(c2ccc(C#N)c(C(F)(F)F)c2)C(=O)N1c1ccc(C(N)=O)c(F)c1` [(MIII), 4-(3-(4-cyano-3-(trifluoromethyl)phenyl)-5,5-dimethyl-2,4-dioxoimidazolidin-1-yl)-2-fluorobenzamide]: the “% Inhibition” value is given as −2% in data set [1] and 8% with Progesterone PR (h). Also, the “% Injected Radioactivity (%)” value in data set [2] stood at 7.96%. For the same molecule, the “% Recovered Radioactivity (%)” value in data set [2] was found to be 12.50%. For the same molecule, in data set [2], the “Peak Area (mV)” value is given as 426 mV. In addition, the “Peak Height (mV)” value in data set [2] came to 77 mV. The inhibition at 10 µM is -2% at PNMT; 11% at Adenosine A3 (h); -19% on Histamine H2 (h); 2% at β1 (h); -11% in [3]; 2% on Adenosine A1 (h).
In the case of `CNC(=O)c1ccc(N2C(=O)N(c3ccc(C#N)c(C(F)(F)F)c3)C(=O)C2(C)C)cc1F` [(MIV), 4-(3-(4-cyano-3-(trifluoromethyl)phenyl)-5,5-dimethyl-2,4-dioxoimidazolidin-1-yl)-2-fluoro-N-methylbenzamide], the figures for the “% Inhibition” value (in data set [1]; in the data set on Progesterone PR (h)) were 16% and 11%, respectively. Further, in data set [2], the “% Injected Radioactivity (%)” value is on record as 8.45%. In data set [2], the “% Recovered Radioactivity (%)” value amounted to 13.27%. Also, the “Peak Area (mV)” value in data set [2] is 452 mV. For the same molecule, in data set [2], the “Peak Height (mV)” value worked out at 63 mV. Besides, the inhibition at 10 µM on PNMT is 14%; on Adenosine A3 (h), 50%; on Histamine H2 (h) it was -20%; on β1 (h), 3%; in data set [3], -3%; on Adenosine A1 (h), 6%.
